Data on 13 compounds can be found in PubChem BioAssay AID250 (DTP/NCI, 2004).

“And” between values parts separate entries of the source, which are not always exact repeats. Equal values may be shown once. Inconclusive results and toxic doses are left out.

This test has as its system BDF1 mice, L1210 leukemia sc, survival T/C. Nature of the test: NCI In Vivo Anticancer Drug Screen. Data for tumor model L1210 Leukemia (subcutaneous) in B6D2F1 (BDF1) mice. The settings on record: higher = longer survival. In a few lines: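 Mice carrying transplanted tumors received test compounds, and survival or tumor size was measured. Values are the treated-group measurement (T) divided by that of the vehicle-treated control group (C).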

Where [1] appears, read: endpoint: median survival time, dose: 39.0 mg/kg/injection, schedule: Q01DX Z (sc), vehicle: saline.
[2] abbreviates: endpoint: median survival time, dose: 65.0 mg/kg/injection, schedule: Q01DX Z (sc), vehicle: saline.
[3] abbreviates: endpoint: median survival time, dose: 108.0 mg/kg/injection, schedule: Q01DX Z (sc), vehicle: saline.
[4] abbreviates: endpoint: median survival time, dose: 180.0 mg/kg/injection, schedule: Q01DX Z (sc), vehicle: saline.
Where [5] appears, read: endpoint: median survival time, dose: 300.0 mg/kg/injection, schedule: Q01DX Z (sc), vehicle: saline.
[6] abbreviates: endpoint: median survival time, dose: 39.0 mg/kg/injection, schedule: Q01DX Z (sc), vehicle: methylcellulose (MC).
Where [7] appears, read: endpoint: median survival time, dose: 65.0 mg/kg/injection, schedule: Q01DX Z (sc), vehicle: methylcellulose (MC).
[8] abbreviates: endpoint: median survival time, dose: 108.0 mg/kg/injection, schedule: Q01DX Z (sc), vehicle: methylcellulose (MC).
The mark [9] stands for this setting: endpoint: median survival time, dose: 180.0 mg/kg/injection, schedule: Q01DX Z (sc), vehicle: methylcellulose (MC).
[10] abbreviates: endpoint: median survival time, dose: 300.0 mg/kg/injection, schedule: Q01DX Z (sc), vehicle: methylcellulose (MC).
[11] abbreviates: endpoint: median survival time, dose: 3.0 mg/kg/injection, schedule: Q01DX Z (sc), vehicle: saline.
Where [12] appears, read: endpoint: median survival time, dose: 5.0 mg/kg/injection, schedule: Q01DX Z (sc), vehicle: saline.
[13] abbreviates: endpoint: median survival time, dose: 8.4 mg/kg/injection, schedule: Q01DX Z (sc), vehicle: saline.
Setting [14] is: endpoint: median survival time, dose: 14.0 mg/kg/injection, schedule: Q01DX Z (sc), vehicle: saline.
[15] abbreviates: endpoint: median survival time, dose: 23.0 mg/kg/injection, schedule: Q01DX Z (sc), vehicle: saline.
The mark [16] stands for this setting: endpoint: median survival time, dose: 23.0 mg/kg/injection, schedule: Q01DX Z (sc), vehicle: methylcellulose (MC).
The mark [17] stands for this setting: endpoint: median survival time, dose: 65.0 mg/kg/injection, schedule: Q01DX Z (sc), vehicle: water.
Setting [18] is: endpoint: median survival time, dose: 108.0 mg/kg/injection, schedule: Q01DX Z (sc), vehicle: water.
The mark [19] stands for this setting: endpoint: median survival time, dose: 300.0 mg/kg/injection, schedule: Q01DX Z (sc), vehicle: water.
The mark [20] stands for this setting: endpoint: median survival time, dose: 39.0 mg/kg/injection, schedule: Q01DX Z (sc), vehicle: water.

Regarding `Cc1cccc2c(Nc3ccc(NS(C)(=O)=O)cc3)c3ccccc3nc12`, the T/C (endpoint: mean survival time, dose: 10.0 mg/kg/injection, schedule: Q01DX009 (ip), vehicle: saline) is 103 % of control; the T/C (endpoint: mean survival time, dose: 20.0 mg/kg/injection, schedule: Q01DX009 (ip), vehicle: saline) is 107 % of control; the T/C (endpoint: mean survival time, dose: 40.0 mg/kg/injection, schedule: Q01DX009 (ip), vehicle: saline) is 106 % of control; the T/C (endpoint: mean survival time, dose: 80.0 mg/kg/injection, schedule: Q01DX009 (ip), vehicle: saline) is 100 % of control; the T/C (endpoint: median survival time, dose: 10.0 mg/kg/injection, schedule: Q01DX009 (ip), vehicle: saline with Tween-80) was 106 % of control; the T/C (endpoint: median survival time, dose: 20.0 mg/kg/injection, schedule: Q01DX009 (ip), vehicle: saline with Tween-80) was 112 % of control.
For the compound `CS(=O)(=O)OCC(O)C(O)COS(C)(=O)=O` (stereo not drawn), the T/C reads like this: under setting [1], 95 % of control; under setting [2], 91 % of control; under setting [3], 91 % of control; under setting [4], 91 % of control; under setting [5], 100 % of control.
As for `O=C1OC(C(O)CO)C(O)=C1O` (stereo not drawn), the T/C is 91 % of control (endpoint: mean survival time, dose: 0.2 mg/kg/injection, schedule: Q08HX010 (ip), vehicle: other); 95 % of control (endpoint: mean survival time, dose: 0.25 mg/kg/injection, schedule: Q08HX010 (ip), vehicle: other); 93 % of control (endpoint: mean survival time, dose: 0.3 mg/kg/injection, schedule: Q08HX010 (ip), vehicle: other); 84 % of control (endpoint: mean survival time, dose: 0.5 mg/kg/injection, schedule: Q08HX010 (ip), vehicle: other).
As to `C[C@]12CCC(=O)C=C1CC[C@H]1[C@@H]3CC[C@](O)(C(=O)CO)[C@@]3(C)C[C@H](O)[C@@]12F`, the T/C is, setting by setting: under setting [6], 100 % of control; under setting [7], 100 % of control; under setting [8], 100 % of control; under setting [9], 100 % of control; under setting [10], 100 % of control and 118 % of control; (endpoint: median survival time, dose: 833.0 mg/kg/injection, schedule: Q01DX Z (sc), vehicle: methylcellulose (MC)) 112 % of control.
For the compound `S=P(N1CC1)(N1CC1)N1CC1`, the T/C is 110 % of control (endpoint: median survival time, dose: 1.08 mg/kg/injection, schedule: Q01DX Z (sc), vehicle: saline); 113 % of control (endpoint: median survival time, dose: 1.5 mg/kg/injection, schedule: Q01DX009 (ip), vehicle: water); 105 % of control (endpoint: median survival time, dose: 1.5 mg/kg/injection, schedule: Q01DX009 (sc), vehicle: water); 100 % of control and 110 % of control (endpoint: median survival time, dose: 1.8 mg/kg/injection, schedule: Q01DX Z (sc), vehicle: saline); 112 % of control under setting [11]; 156 % of control under setting [12]. Moreover, the T/C by setting is: (endpoint: median survival time, dose: 6.0 mg/kg/injection, schedule: Q01DX009 (ip), vehicle: water) 94 % of control; (endpoint: median survival time, dose: 6.0 mg/kg/injection, schedule: Q01DX009 (sc), vehicle: water) 169 % of control; under setting [13], 170 % of control; (endpoint: median survival time, dose: 12.0 mg/kg/injection, schedule: Q01DX009 (sc), vehicle: water) 86 % of control; under setting [14], 120 % of control; under setting [15], 104 % of control and 120 % of control.
For `Nc1nc(=S)c2ncn(C3OC(COC(=O)c4ccccc4)C(OC(=O)c4ccccc4)C3OC(=O)c3ccccc3)c2[nH]1` (stereo not drawn), the T/C under setting [16] was 100 % of control; the T/C under setting [6] is 100 % of control; the T/C under setting [7] was 110 % of control; the T/C under setting [8] is 100 % of control and 112 % of control; the T/C under setting [9] was 108 % of control; the T/C under setting [10] is 100 % of control. Besides, the T/C (endpoint: median survival time, dose: 500.0 mg/kg/injection, schedule: Q01DX Z (sc), vehicle: methylcellulose (MC)) was 91 % of control.
For the compound `CC(=O)Nc1ccc2nc3ccc(NC(C)=O)cc3[n+](-c3ccccc3)c2c1`, the T/C is, setting by setting: under setting [16], 105 % of control; under setting [7], 105 % of control.
Take `O=NN(CCF)C(=O)NC12CC3CC(CC(C3)C1)C2`: the T/C reads like this: (endpoint: median survival time, dose: 14.0 mg/kg/injection, schedule: Q01DX Z (sc), vehicle: carboxymethylcellulose (CMC)) 100 % of control; (endpoint: median survival time, dose: 23.0 mg/kg/injection, schedule: Q01DX Z (sc), vehicle: carboxymethylcellulose (CMC)) 100 % of control; (endpoint: median survival time, dose: 65.0 mg/kg/injection, schedule: Q01DX Z (sc), vehicle: carboxymethylcellulose (CMC)) 388 % of control; (endpoint: median survival time, dose: 108.0 mg/kg/injection, schedule: Q01DX Z (sc), vehicle: carboxymethylcellulose (CMC)) 200 % of control.
Regarding `Nc1ccc(OC(=O)Oc2ccc(N)cc2)cc1`, the T/C (endpoint: median survival time, dose: 180.0 mg/kg/injection, schedule: Q01DX Z (sc), vehicle: carboxymethylcellulose (CMC)) was 111 % of control and the T/C (endpoint: median survival time, dose: 833.0 mg/kg/injection, schedule: Q01DX Z (sc), vehicle: carboxymethylcellulose (CMC)) is 100 % of control.
For `CCOC(=O)CCC(NC(=O)N(CCCl)CCCl)C(=O)OCC` (stereo not drawn), the T/C by setting is: under setting [17], 106 % of control; under setting [18], 112 % of control; (endpoint: median survival time, dose: 180.0 mg/kg/injection, schedule: Q01DX Z (sc), vehicle: water) 100 % of control; under setting [19], 100 % of control; (endpoint: median survival time, dose: 500.0 mg/kg/injection, schedule: Q01DX Z (sc), vehicle: water) 112 % of control.
On to `O=C(Nc1ccc(C2=NCCN2)cc1)c1ccc(C(=O)Nc2ccc(C3=NCCN3)cc2)cc1`, for which the T/C reads like this: under setting [11], 100 % of control; under setting [12], 100 % of control and 104 % of control; under setting [13], 109 % of control; under setting [14], 104 % of control; (endpoint: median survival time, dose: 23.0 mg/kg/injection, schedule: Q01DX Z (ip), vehicle: water) 100 % of control; under setting [15], 104 % of control and 109 % of control. Also, the T/C runs as follows: (endpoint: median survival time, dose: 39.0 mg/kg/injection, schedule: Q01DX Z (ip), vehicle: water) 100 % of control; under setting [1], 100 % of control; under setting [20], 100 % of control; (endpoint: median survival time, dose: 65.0 mg/kg/injection, schedule: Q01DX Z (ip), vehicle: water) 110 % of control; under setting [2], 100 % of control and 104 % of control; under setting [3], 100 % of control and 104 % of control. Moreover, the T/C was 115 % of control (endpoint: median survival time, dose: 180.0 mg/kg/injection, schedule: Q01DX Z (ip), vehicle: water); 104 % of control under setting [4]; 110 % of control and 100 % of control (endpoint: median survival time, dose: 200.0 mg/kg/injection, schedule: Q01DX Z (sc), vehicle: water); 185 % of control (endpoint: median survival time, dose: 300.0 mg/kg/injection, schedule: Q01DX Z (ip), vehicle: water); 104 % of control under setting [5]; 100 % of control under setting [19]. Moreover, the T/C (endpoint: median survival time, dose: 400.0 mg/kg/injection, schedule: Q01DX Z (sc), vehicle: water) was 205 % of control and 105 % of control; the T/C (endpoint: median survival time, dose: 800.0 mg/kg/injection, schedule: Q01DX Z (sc), vehicle: water) is 170 % of control and 220 % of control.
In the case of `CS(=O)(=O)Nc1ccc(Nc2c3ccccc3nc3cc(Cl)ccc23)cc1`, the T/C runs as follows: (endpoint: mean survival time, dose: 10.0 mg/kg/injection, schedule: Q01DX009 (sc), vehicle: saline) 104 % of control; (endpoint: mean survival time, dose: 20.0 mg/kg/injection, schedule: Q01DX009 (sc), vehicle: saline) 112 % of control; (endpoint: mean survival time, dose: 40.0 mg/kg/injection, schedule: Q01DX009 (sc), vehicle: saline) 113 % of control; (endpoint: mean survival time, dose: 80.0 mg/kg/injection, schedule: Q01DX009 (sc), vehicle: saline) 124 % of control.
Take `O=C(Nc1ccc(C2=NCCN2)cc1)c1cccc(C(=O)Nc2ccc(C3=NCCN3)cc2)c1`: the T/C runs as follows: (endpoint: median survival time, dose: 8.4 mg/kg/injection, schedule: Q01DX Z (sc), vehicle: water) 110 % of control; (endpoint: median survival time, dose: 14.0 mg/kg/injection, schedule: Q01DX Z (sc), vehicle: water) 230 % of control; (endpoint: median survival time, dose: 23.0 mg/kg/injection, schedule: Q01DX Z (sc), vehicle: water) 235 % of control; under setting [20], 270 % of control; under setting [17], 265 % of control; under setting [18], 270 % of control.
